Laboratory results: patent US20230022400A1, “IMMUNOMODULATORS” (Bristol-Myers Squibb Company, priority 2019, published 2023)
Where a SMILES comes first, the peptide text is derived from it. Bridges are numbered along the chain shown (N, C = ends). [ ]: non-standard residue; d: D form. The star is where a group is joined. Trp(1-CH2COOH) = N[C@@H](Cc1cn(CC(=O)O)c2ccccc12)C(=O)O; X22 = Cc1ccc2c(c1)[nH]c1nc(Cl)nc(*)c12; Hyp = O=C(O)[C@@H]1C[C@@H](O)CN1; X20 = Cc1ccc2[nH]c3c(*)ncnc3c2c1; X2 = CSc1nc(*)c2sc3ccccc3c2n1; NMeNle = CCCC[C@H](NC)C(=O)O; NMeA = CN[C@@H](C)C(=O)O; Dab = NCC[C@H](N)C(=O)O; X21 = Fc1ccc2nc(*)sc2c1; Dap = NC[C@H](N)C(=O)O; X15 = c1cnc(*)cn1

What follows are molecules tested against T1, PD-1/PD-L1 interaction (PD-1-Ig / PD-L1-His) (Homo sapiens, UniProt Q9NZQ7) (assay: PD-1/PD-L1 Homogenous Time-Resolved Fluorescence (HTRF) binding assay). Details: PD-L1-His 10 nM final, PD-1-Ig 20 nM final; inhibitors pre-incubated with PD-L1-His for 15 m.
T1 construct: TVMV protease site (linker) (C); made in house; host or cells: HEK293T cells
T1 sequence (Q9NZQ7 18-239): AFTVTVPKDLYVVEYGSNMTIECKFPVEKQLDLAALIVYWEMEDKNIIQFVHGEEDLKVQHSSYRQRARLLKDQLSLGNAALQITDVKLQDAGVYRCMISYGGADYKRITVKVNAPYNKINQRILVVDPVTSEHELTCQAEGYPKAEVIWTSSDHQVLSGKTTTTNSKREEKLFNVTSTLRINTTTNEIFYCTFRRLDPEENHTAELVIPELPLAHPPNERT
Source text: The ability of the compounds of formula (I) to bind to PD-L1 was investigated using a PD-1/PD-L1 Homogenous Time-Resolved Fluorescence (HTRF) binding assay.
The interaction of PD-1 and PD-L1 can be assessed using soluble, purified preparations of the extracellular domains of the two proteins. The PD-1 and PD-L1 protein extracellular domains were expressed as fusion proteins with detection tags, for PD-1, the tag was the Fc portion of Immunoglobulin (PD-1-Ig) and for PD-L1 it was the 6 histidine motif (PD-L1-His). All binding studies were performed in an HTRF assay buffer consisting of dPBS supplemented with 0.1% […] bovine serum albumin and 0.05% (v/v) Tween-20. For the h/PD-L1-His binding assay, inhibitors were pre-incubated with PD-L1-His (10 nM final) for 15 m in 4 μl of assay buffer, followed by addition of PD-1-Ig (20 nM final) in 1 μl of assay buffer and further incubation for 15 m. HTRF detection was achieved using europium crypate-labeled anti-Ig (1 nM final) and allophycocyanin (APC) labeled anti-His (20 nM final). Antibodies were diluted in HTRF detection buffer and 5 μl was dispensed on top of the binding reaction. The reaction mixture was allowed to equilibrate for 30 minutes and the resulting signal (665 nm/620 nm ratio) was obtained using an EnVision fluorometer. Additional binding assays were established between the human proteins PD-1-Ig/PD-L2-His (20 & 5 nM, respectively) and CD80-His/PD-L1-Ig (100 & 10 nM, respectively).
Recombinant Proteins: Human PD-1 (25-167) with a C-terminal human Fc domain of immunoglobulin G (Ig) epitope tag [hPD-1 (25-167)-3S-IG] and human PD-L1 (18-239) with a C-terminal His epitope tag [hPD-L1(18-239)-TVMV-His] were expressed in HEK293T cells and purified sequentially by ProteinA affinity chromatography and size exclusion chromatography. Human PD-L2-His and CD80-His was obtained through commercial sources.
Table 1 lists the IC50 values for representative examples of this disclosure measured in the PD-1/PD-L1 Homogenous Time-Resolved Fluorescence (HTRF) binding assay.

Compound | IC50 [nM]
CCCC[C@H]1C(=O)N(C)[C@@H](CCCC)C(=O)N[C@@H](CC(C)C)C(=O)N[C@H](C(=O)NCC(N)=O)CSCC(=O)N[C@@H](Cc2ccc(O)cc2)C(=O)N(C)[C@@H](C)C(=O)N[C@@H](CC(N)=O)C(=O)N2CCC[C@H]2C(=O)N[C@@H](CNc2nc(SC)nc3c2sc2ccccc23)C(=O)N[C@@H](CC(C)C)C(=O)N2C[C@H](O)C[C@H]2C(=O)N[C@@H](Cc2c[nH]c3ccccc23)C(=O)N[C@@H](CCNc2nc(SC)nc3c2sc2ccccc23)C(=O)N[C@@H](Cc2cn(CC(=O)O)c3ccccc23)C(=O)N1C [Compound 21009] ({CH2CO}-Y[NMeA]NP[Dap](X2)L[Hyp]W[Dab](X2)[Trp(1-CH2COOH)][NMeNle][NMeNle]LCG-NH2; thioether N-14) | 136
CCCC[C@H]1C(=O)N(C)[C@@H](CCCC)C(=O)N[C@@H](CC(C)C)C(=O)N[C@H](C(=O)NCC(N)=O)CSCC(=O)N[C@@H](Cc2ccc(O)cc2)C(=O)N(C)[C@@H](C)C(=O)N[C@@H](CC(N)=O)C(=O)N2CCC[C@H]2C(=O)N[C@@H](CNc2nc(Cl)nc3[nH]c4cc(C)ccc4c23)C(=O)N[C@@H](CC(C)C)C(=O)N2C[C@H](O)C[C@H]2C(=O)N[C@@H](Cc2c[nH]c3ccccc23)C(=O)N[C@@H](CCN)C(=O)N[C@@H](Cc2cn(CC(=O)O)c3ccccc23)C(=O)N1C [Compound 21007] ({CH2CO}-Y[NMeA]NP[Dap](X22)L[Hyp]W[Dab][Trp(1-CH2COOH)][NMeNle][NMeNle]LCG-NH2; thioether N-14) | 4.4
CCCC[C@H]1C(=O)N(C)[C@@H](CCCC)C(=O)N[C@@H](CC(C)C)C(=O)N[C@H](C(=O)NCC(N)=O)CSCC(=O)N[C@@H](Cc2ccc(O)cc2)C(=O)N(C)[C@@H](C)C(=O)N[C@@H](CC(N)=O)C(=O)N2CCC[C@H]2C(=O)N[C@@H](CNc2cnccn2)C(=O)N[C@@H](CC(C)C)C(=O)N2C[C@H](O)C[C@H]2C(=O)N[C@@H](Cc2c[nH]c3ccccc23)C(=O)N[C@@H](CCN)C(=O)N[C@@H](Cc2cn(CC(=O)O)c3ccccc23)C(=O)N1C [Compound 1005] ({CH2CO}-Y[NMeA]NP[Dap](X15)L[Hyp]W[Dab][Trp(1-CH2COOH)][NMeNle][NMeNle]LCG-NH2; thioether N-14) | 11
CCCC[C@H]1C(=O)N(C)[C@@H](CCCC)C(=O)N[C@@H](CC(C)C)C(=O)N[C@H](C(=O)NCC(N)=O)CSCC(=O)N[C@@H](Cc2ccc(O)cc2)C(=O)N(C)[C@@H](C)C(=O)N[C@@H](CC(N)=O)C(=O)N2CCC[C@H]2C(=O)N[C@@H](CNc2ncnc3c2[nH]c2ccc(C)cc23)C(=O)N[C@@H](CC(C)C)C(=O)N2C[C@H](O)C[C@H]2C(=O)N[C@@H](Cc2c[nH]c3ccccc23)C(=O)N[C@@H](CCN)C(=O)N[C@@H](Cc2cn(CC(=O)O)c3ccccc23)C(=O)N1C [Compound 21003] ({CH2CO}-Y[NMeA]NP[Dap](X20)L[Hyp]W[Dab][Trp(1-CH2COOH)][NMeNle][NMeNle]LCG-NH2; thioether N-14) | 13
CCCC[C@H]1C(=O)N(C)[C@@H](CCCC)C(=O)N[C@@H](CC(C)C)C(=O)N[C@H](C(=O)NCC(N)=O)CSCC(=O)N[C@@H](Cc2ccc(O)cc2)C(=O)N(C)[C@@H](C)C(=O)N[C@@H](CC(N)=O)C(=O)N2CCC[C@H]2C(=O)N[C@@H](CNc2nc3ccc(F)cc3s2)C(=O)N[C@@H](CC(C)C)C(=O)N2C[C@H](O)C[C@H]2C(=O)N[C@@H](Cc2c[nH]c3ccccc23)C(=O)N[C@@H](CCN)C(=O)N[C@@H](Cc2cn(CC(=O)O)c3ccccc23)C(=O)N1C [Compound 11010] ({CH2CO}-Y[NMeA]NP[Dap](X21)L[Hyp]W[Dab][Trp(1-CH2COOH)][NMeNle][NMeNle]LCG-NH2; thioether N-14) | 45
